Source: paper PMC5608406, “In vivo activation of latent HIV with a synthetic bryostatin analog effects both latent cell "kick" and "kill" in strategy for virus eradication” (PLoS Pathogens, 2017)
pKi: −log10 of the molar value.

What was measured:
[1] = biological target: T1, PKC alpha (Homo sapiens, UniProt P17252); test: PKC binding assay, competition with 3H-PDBu
T1 construct: purchased Invitrogen
Experimental: (§1) This entails a glass-fiber filtration method to determine bound radioligand.
(§2) To a polypropylene vial was added Tris-HCl (pH 7.4, 1 M, 1 mL), KCl (1 M, 2 mL), CaCl2 (0.1 M, 30 μL), and bovine serum albumin (40 mg, from Sigma). This mixture was diluted to 20 mL with deionized H2O, and mixed gently. The buffer was stored on ice until use. The final concentration of these constituents are shown in S2 Table.
(§3) For every 2 assays, 3.5 mg phosphatidylserine (Avanti Polar Lipids, porcine, obtained as a solution in CHCl3) was isolated by removing chloroform under a stream of nitrogen followed by reduced pressure. The solid PS was suspended as vesicles in binding assay buffer (3.5 mL) by sonicating (Branson Sonifier 250, power = 2, 50% duty cycle) six times for 30 s with a 30 s rest between sonications. The resulting cloudy mixture (1 mg/mL PS) was stored on ice until use.
(§4) Assay Protein Kinase C (PKC) was prepared by dissolving a 4 μg aliquot of the indicated recombinant human PKC isoform (Invitrogen) into 11.6 mL of binding assay buffer. The KD values for all 7 isoforms were determined experimentally. The diluted PKC was stored on ice for immediate use. This amount is sufficient for 2 assays with room for error.
(§5) This 500 nM stock solution was further diluted in DMSO to 30 nM for use in assays. The 500 nM and 30 nM stock solutions were stored frozen in DMSO at −20°C until use. […] Seven analog concentrations were used to define the inhibition curve.
(§6) The resulting solution was vortexed to mix and stored on ice.
(§7) Triplicate data points were obtained for each analog concentration. For each data point, 280 μL of Master Mix Solution and test compound at the given concentration (20 μL) were added to a polypropylene tube. […] Counts per minute (cpm) were averaged for each triplicate dilution.

[2] = biological target: T2, PKC beta I (Homo sapiens, UniProt P05771); test: PKC binding assay, competition with 3H-PDBu
T2 construct: purchased Invitrogen
Experimental: as §1, §2, §3, §4, §5, §6, §7

[3] = biological target: T3, PKC delta (Homo sapiens, UniProt Q05655); test: PKC binding assay, competition with 3H-PDBu
T3 construct: purchased Invitrogen
Experimental: as §1, §2, §3, §4, §5, §6, §7

[4] = biological target: T4, PKC epsilon (Homo sapiens, UniProt Q02156); test: PKC binding assay, competition with 3H-PDBu
T4 construct: purchased Invitrogen
T4 sequence (Q02156 1-737): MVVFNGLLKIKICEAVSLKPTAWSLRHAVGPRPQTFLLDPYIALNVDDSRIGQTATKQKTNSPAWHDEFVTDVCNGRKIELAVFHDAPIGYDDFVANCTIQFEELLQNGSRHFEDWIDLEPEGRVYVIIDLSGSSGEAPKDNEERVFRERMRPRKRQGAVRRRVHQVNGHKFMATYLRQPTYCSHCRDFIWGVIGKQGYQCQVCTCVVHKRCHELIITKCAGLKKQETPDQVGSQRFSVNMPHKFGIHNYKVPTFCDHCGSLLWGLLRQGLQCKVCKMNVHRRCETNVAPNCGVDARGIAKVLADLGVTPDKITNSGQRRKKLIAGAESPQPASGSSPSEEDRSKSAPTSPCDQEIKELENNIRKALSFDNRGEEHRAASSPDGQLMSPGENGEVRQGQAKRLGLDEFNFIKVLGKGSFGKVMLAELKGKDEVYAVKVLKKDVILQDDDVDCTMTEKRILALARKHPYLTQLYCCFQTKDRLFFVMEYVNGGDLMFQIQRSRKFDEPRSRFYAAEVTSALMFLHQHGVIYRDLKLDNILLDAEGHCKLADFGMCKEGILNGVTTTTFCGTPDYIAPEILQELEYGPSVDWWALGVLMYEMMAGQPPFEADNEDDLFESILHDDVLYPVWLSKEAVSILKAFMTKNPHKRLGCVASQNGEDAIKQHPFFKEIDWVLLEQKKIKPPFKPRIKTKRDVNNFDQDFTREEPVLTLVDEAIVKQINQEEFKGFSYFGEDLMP
Experimental: as §1, §2, §3, §4, §5, §6, §7

[5] = biological target: T5, PKC eta (Homo sapiens, UniProt P24723); test: PKC binding assay, competition with 3H-PDBu
T5 construct: purchased Invitrogen
Experimental: as §1, §2, §3, §4, §5, §6, §7

[6] = biological target: T6, PKC gamma (Homo sapiens, UniProt P05129); test: PKC binding assay, competition with 3H-PDBu
T6 construct: purchased Invitrogen
Experimental: as §1, §2, §3, §4, §5, §6, §7

[7] = biological target: T7, PKC theta (Homo sapiens, UniProt Q04759); test: PKC binding assay, competition with 3H-PDBu
T7 construct: purchased Invitrogen
Experimental: as §1, §2, §3, §4, §5, §6, §7

[8] = test system: latent HIV in CD4+ T cells from ART-treated patients; test: Activation of HIV from latency in patient-derived CD4+ T cells (virion-associated HIV RNA in supernatant); type: cell-based, human
Excerpt: Nine HIV-infected individuals receiving ART for a median of 2.6 years (range 0.4–9.1) were studied. All study subjects maintained undetectable levels of plasma viremia (<50 copies/mL) at the time of study (S1 Table).
CD4^+ T cells were isolated from cryopreserved peripheral blood mononuclear cells (PBMCs) using a cell enrichment kit (StemCell Technologies). For patient samples 1–6, resting CD4^+ T cells were further isolated by depleting CD25^+, HLA-DR^+ and CD69^+ CD4^+ cells using PE-conjugated antibodies (BD Biosciences) and anti-PE microbeads (Miltenyi Biotec). CD4^+ T cells were incubated with RPMI 1640-based medium containing antiretroviral drugs consisting of T-20 (100 μg/mL), tenofovir (1 μM), and emtricitabine (1 μM), and test stimuli at concentrations indicated in the figures.
The copy number of virion-associated HIV RNA in the cell culture supernatants was measured using the Cobas Ampliprep/Cobas Taqman HIV-1 Test, Version 2.0 (Roche Diagnostics) following 36–48 hours of incubation of cells with the above study compounds. The limit of detection was 20 copies/mL.

[9] = test system: primary CD4+ T cells; test: Induction of CD69 expression in primary CD4+ T cells; type: cell-based, human; settings: 24h
Experimental: Primary human cells from HIV seronegative individuals were cultured in “RF10 medium” consisting of RPMI 1640 medium supplemented with 10% fetal bovine serum (FBS, Omega Scientific), 100 U/mL of penicillin, and 100 μg/mL of streptomycin (Invitrogen). PBMCs were isolated using Ficoll-Paque Plus separation (GE Healthcare). Primary CD4+ T cells were separated from PBMCs by negative immunomagnetic selection using the CD4+ T cell Isolation Kit (Miltenyi Biotec) according to the manufacturer’s instructions. Cells were then exposed to compound for 24 hours before staining and flow cytometric analysis of CD69 levels. Compound incubations were performed by seeding 10^5 cells/well in 100 μL of RF10 media containing the appropriate concentration of compound in wells of a v-bottomed 96-well plate. Bryostatin 1 (Tocris bioscience) and Prostratin (LC Laboratories) were obtained commercially, and bryologs or prostratin analogs were synthesized as previously described.
For human PBMC CD69 induction experiments, cells were stained with CD69-ECD (Beckman Coulter 6607110). During staining, cells were incubated at 4 °C for 20 minutes, washed with 2% FBS in PBS, and then resuspended in 2% paraformaldehyde. Stained samples were stored at 4 °C.
Flow cytometry samples were analyzed using a Cytomics FC 500 (Beckman Coulter) or a LSR Fortessa (BD Biosciences) flow cytometer. Data were analyzed using FlowJo (v7) software.

[10] = CD4+ T cells from 3 ART-treated patients, 48h

T2 sequence (P05771 whole entry): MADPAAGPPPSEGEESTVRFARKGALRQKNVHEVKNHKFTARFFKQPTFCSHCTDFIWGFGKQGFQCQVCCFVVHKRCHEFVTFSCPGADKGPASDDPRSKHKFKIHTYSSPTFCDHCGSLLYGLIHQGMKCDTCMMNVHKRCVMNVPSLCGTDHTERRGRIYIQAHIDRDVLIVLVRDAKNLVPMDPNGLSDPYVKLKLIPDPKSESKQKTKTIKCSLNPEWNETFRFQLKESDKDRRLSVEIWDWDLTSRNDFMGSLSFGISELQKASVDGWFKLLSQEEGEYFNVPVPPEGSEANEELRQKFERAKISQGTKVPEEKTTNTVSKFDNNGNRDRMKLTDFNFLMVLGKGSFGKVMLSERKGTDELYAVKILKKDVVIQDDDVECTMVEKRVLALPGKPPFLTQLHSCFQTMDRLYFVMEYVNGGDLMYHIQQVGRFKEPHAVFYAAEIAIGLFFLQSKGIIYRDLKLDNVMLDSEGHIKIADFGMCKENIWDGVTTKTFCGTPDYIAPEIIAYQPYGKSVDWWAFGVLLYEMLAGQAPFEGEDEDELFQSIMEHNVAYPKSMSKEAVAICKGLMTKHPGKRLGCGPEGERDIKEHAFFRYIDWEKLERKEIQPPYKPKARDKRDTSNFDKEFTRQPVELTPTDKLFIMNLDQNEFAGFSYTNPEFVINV
T3 sequence (Q05655 whole entry): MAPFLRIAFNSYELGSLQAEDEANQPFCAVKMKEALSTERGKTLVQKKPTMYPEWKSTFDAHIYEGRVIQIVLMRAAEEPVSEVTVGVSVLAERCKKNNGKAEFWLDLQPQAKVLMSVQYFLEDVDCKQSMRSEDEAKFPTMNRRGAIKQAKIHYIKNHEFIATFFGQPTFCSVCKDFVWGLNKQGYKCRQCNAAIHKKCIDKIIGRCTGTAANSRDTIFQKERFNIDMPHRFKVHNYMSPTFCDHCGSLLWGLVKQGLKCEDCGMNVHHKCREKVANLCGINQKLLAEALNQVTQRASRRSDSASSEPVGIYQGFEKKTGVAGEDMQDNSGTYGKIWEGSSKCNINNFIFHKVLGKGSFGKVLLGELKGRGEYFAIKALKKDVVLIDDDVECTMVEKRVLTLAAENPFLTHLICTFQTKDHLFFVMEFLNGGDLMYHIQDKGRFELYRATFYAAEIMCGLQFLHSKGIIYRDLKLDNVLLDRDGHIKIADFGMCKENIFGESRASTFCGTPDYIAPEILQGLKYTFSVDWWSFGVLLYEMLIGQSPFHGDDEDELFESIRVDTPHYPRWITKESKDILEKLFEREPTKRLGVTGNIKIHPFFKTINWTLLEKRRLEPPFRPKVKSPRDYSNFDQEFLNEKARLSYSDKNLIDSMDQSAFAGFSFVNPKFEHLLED
T7 sequence (Q04759 whole entry): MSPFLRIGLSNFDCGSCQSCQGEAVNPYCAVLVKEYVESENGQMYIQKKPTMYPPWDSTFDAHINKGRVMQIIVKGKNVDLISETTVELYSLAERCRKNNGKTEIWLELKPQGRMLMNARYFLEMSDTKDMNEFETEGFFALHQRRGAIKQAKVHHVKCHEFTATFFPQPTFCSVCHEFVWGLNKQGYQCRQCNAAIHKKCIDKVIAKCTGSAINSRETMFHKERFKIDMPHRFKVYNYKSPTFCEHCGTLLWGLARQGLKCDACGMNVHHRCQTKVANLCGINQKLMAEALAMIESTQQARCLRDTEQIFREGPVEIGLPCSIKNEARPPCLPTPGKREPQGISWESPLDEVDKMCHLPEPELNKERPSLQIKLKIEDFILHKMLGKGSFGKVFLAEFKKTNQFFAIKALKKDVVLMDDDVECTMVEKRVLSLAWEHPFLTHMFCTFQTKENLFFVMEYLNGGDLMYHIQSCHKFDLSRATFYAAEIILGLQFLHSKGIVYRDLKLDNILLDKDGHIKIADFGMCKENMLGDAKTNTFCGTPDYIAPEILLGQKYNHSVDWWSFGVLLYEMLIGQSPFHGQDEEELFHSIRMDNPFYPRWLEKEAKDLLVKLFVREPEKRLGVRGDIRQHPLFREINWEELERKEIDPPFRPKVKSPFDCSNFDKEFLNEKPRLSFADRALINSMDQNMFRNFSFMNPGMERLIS
T5 sequence (P24723 whole entry): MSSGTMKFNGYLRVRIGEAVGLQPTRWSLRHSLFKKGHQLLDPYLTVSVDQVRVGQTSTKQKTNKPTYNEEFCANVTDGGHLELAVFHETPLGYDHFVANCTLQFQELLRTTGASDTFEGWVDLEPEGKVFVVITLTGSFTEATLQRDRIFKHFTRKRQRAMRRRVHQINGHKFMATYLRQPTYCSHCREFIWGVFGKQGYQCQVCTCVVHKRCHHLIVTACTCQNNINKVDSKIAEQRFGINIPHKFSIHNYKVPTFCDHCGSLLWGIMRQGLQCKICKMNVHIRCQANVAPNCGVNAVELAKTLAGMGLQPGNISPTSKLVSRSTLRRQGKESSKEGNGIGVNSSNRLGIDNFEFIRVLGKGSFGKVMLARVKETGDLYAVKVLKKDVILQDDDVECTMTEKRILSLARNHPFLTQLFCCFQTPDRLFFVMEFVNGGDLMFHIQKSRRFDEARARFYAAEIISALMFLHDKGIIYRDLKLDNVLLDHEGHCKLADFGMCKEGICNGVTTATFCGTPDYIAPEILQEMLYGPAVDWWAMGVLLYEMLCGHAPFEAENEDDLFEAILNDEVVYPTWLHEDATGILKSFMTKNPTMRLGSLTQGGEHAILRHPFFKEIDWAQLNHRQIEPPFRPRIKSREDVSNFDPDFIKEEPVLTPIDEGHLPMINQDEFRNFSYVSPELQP

`C=C1C[C@H]2C[C@]3(O)O[C@H](C[C@@H](O)CC(=O)O[C@@H](CO)C[C@@H]4C/C(=C\C(=O)OC)[C@H](OC(=O)CCCCCCC)[C@@](O)(O4)C(C)(C)/C=C/[C@@H](C1)O2)C[C@H](OC(C)=O)C3(C)C` [SUW133] gave a pKi [1] of 8.74, a pKi [2] of 8.20 and a pKi [3] of 8.70. It also gave a pKi [4] of 8.24, a pKi [5] of 8.19 and a pKi [6] of 8.25. For the same compound, the pKi [7] was 8.70, the “amount of cell-free virion-associated HIV RNA relative to maximal T cell stimulation (costimulation)” value [8, 10] was “approximately 1/3” and the “virus production compared with other LRAs” value [8, 10] was “significantly outperformed panobinostat, vorinostat, JQ1, and bryostatin 1 treatment”. The “induction of latent virus (cell-free virion-associated viral RNA)” value ([8]; resting CD4+ T cells from 6 aviremic patients, 50 nM, 36h) was “induced significant levels of latent virus” and the CD69 expression [9] was “upregulates expression”.
